“Also recorded” adds a separate entry of the source. Read-outs that look alike come from different tables or passages of the source.
Key:
deacetylase = settings: cited from earlier work
[1] = test system: PC12 cells induced to express Httex1p (103QP); assay: Histone acetylation analysis in PC12 cell extract (Western blot); assay type: cell-based; settings: PC12 F103QP-EGFP cells, uninduced and induced, 5 mM sodium butyrate for last 24 h
Experimental: Histone acetylation analysis in PC12 cell extract. PC12 cells, stably transfected with ecdysone-inducible (Invitrogen) F103QP-EGFP were plated, induced with 5 μM ponasterone (Invitrogen) for 48 h, and treated for the last 24 h with 5 mM sodium butyrate. Controls included uninduced and/or non-butyrate-treated cells. Cells were lysed in 1×HAT buffer with 50 mM NaCl, 0.3% NP-40, and a protease-inhibitor cocktail on ice for 10 min. A 50 μg aliquot of whole cell extract was analyzed by Western blot.
Separate, independently-derived, ecdysone-inducible PC12 cell lines, denoted PC12/pBWN:Htt ex1Q103-EGFP cells and PC12/pWN:Httex1Q25-EGFP (E. S. Schweitzer, UCLA), were also analyzed. These clonal cells contain a modified exon 1 of Htt inserted into an expression vector containing the Bombyx ecdysone-regulated element (described in Suhr, S. T., et al. (1998) Proc. Natl. Acad. Sci. U.S.A. 95, 7999-8004).
Twenty-five micrograms of whole cell extracts from PC12 cells stably transfected with plasmids encoding inducible 25QP-EGFP and 103QP-EGFP was analyzed for […]. Control cells (uninduced) and cells induced with 1 μM tebufenizide for 12 h were analyzed by Western blots. Anti-acetylated histone H4, anti-histone H3 and anti-acetylated histone H3 (all from Upstate Biotechnology) were used to determine levels of acetylated histones H3 and H4 relative to levels of total H3.

flies expressing Q48 = assay: Pseudopupil analysis of rhabdomeres in flies expressing Q48 polyglutamine peptides; assay type: in vivo, Drosophila; settings: for progressive photoreceptor neuron degeneration: feeding initiated only in adult flies; for distribution of rhabdomeres by day 6: Q48 flies fed inhibitor, data not shown; for neurodegenerative effect of Q48 (photographs of ommatidia): in vivo
From the text: (§1) Drosophila stocks and crosses. Expression of polyglutamine-containing peptides is driven by the bipartite expression system activator sequence (UAS)-GAL4 in transgenic flies (Marsh, J. L. et al. (2000) Hum. Mol. Gen. 9, 13-25).
(§2) Injection of plasmids expressing Httex1p with 20 or 93 glutamines produced nine and ten lines, respectively. Two lines with the most severe neuronal phenotype (P463 and P465) were chosen for the experiments described herein. Polyglutamine stocks are w;P(w^+mC=UAS-Q93httexon1)^4F1 and w;P(w^+mC=UAS-Q48+myc/flag)^20. Constructs under the control of a yeast UAS were crossed to flies expressing the yeast GAL4 transcriptional activator (Brand, A. and Perrimon, N., supra) driven by the neuron-specific promoter elav (chromosome 2 driver for Q48 lines, Luo, L. et al. (1994) Genes Dev. 8, 1787-1802, and X-chromosome driver for Htt exon 1 lines, Lin, D. M. & Goodman, C. S. (1994) Neuron 13, 507-523) that is expressed in all neurons from embryogenesis onwards: w;P(w^+mC;w+; elav-GAL4)/CyO, P(w^+mC=Act-GFP)JMR1CyO actin-GFP or w;P(w^+mW.hs=GawB)elavC155.
For testing the effect of Sin3A on polyglutamine phenotypes, we crossed w;P(w^+mC=UAS-Q93httexon1)^4F1 virgins to w;P{w^+mCwPw;elav-GAL4)/Y;Sin3A^08269/Bc Gla males.
Pseudopupil analysis and transgene expression. Pseudopupil analysis allows visualization of the arrangement of rhabdomeres in the ommatidia of the compound eye (Franceschini, N. (1972) in Information processing in the visual systems of arthropods, ed. Wehner, R., pp 75-82). Adult flies were decapitated, one eye was dipped in a drop of nail polish and the head was mounted on a microscope slide. Eyes were analyzed with a Nikon EFD-3/Optiphot-2 scope using a 50× objective, and photographed with a Spot camera. At least 200 ommatidia were scored for each condition. For Western analysis of transgene expression, 20 larvae from each sample were ground in a buffer containing 0.1 M phosphate at pH7.1, 0.3 M sucrose, 0.02 mM phenylthiourea, protease cocktail and 0.1 mM PMSF, and 200 μg of total lysate were loaded per lane.

[2] = test system: flies expressing Httex1p Q93; assay: Pseudopupil analysis of rhabdomeres in flies expressing Httex1p Q93; assay type: in vivo, Drosophila
From the text: as §1
as §2, with “w;P(w^+mW.hs=GawB)elavC155. […]” for “w;P(w^+mW.hs=GawB)elavC155.”
Pseudopupil analysis and transgene expression. […] Eyes were analyzed with a Nikon EFD-3/Optiphot-2 scope using a 50× objective, and photographed with a Spot camera. At least 200 ommatidia were scored for each condition. […]

R6/2 mice = assay: Rotarod analysis of motor impairment; assay type: in vivo
Experimental: (§3) Animals. […] Control mice were wild-type female littermates.
(§4) Behavioral analysis: Rotarod impairment was assessed on a Ugo Basile 7650 accelerating Rotarod (Linton Instrumentation, UK), modified as previously described (Hockly et al, submitted). Animals (R6/2: n=13, wild-type: n=12 per treatment group) were tested at 4 weeks of age to establish their baseline performance and then at 8, 10 and 12 weeks of age. Grip strength was measured once per fortnight (Hockly et al. submitted) and animals weighed weekly to the nearest 0.1 g. Statistical analysis of grip strength used ANOVA on the mean grip strength. Rotarod data were analyzed at each time point using repeated measures in a linear mixed effects model (in S-plus).

[3] = Body weight in SAHA preclinical trial; assay type: in vivo, mice
Experimental: as §3, §4

[4] = test system: huntingtin aggregate load; assay: Organotypic hippocampal slice culture assay of polyQ aggregation; assay type: cell-based, R6/2 mice
Experimental: The present inventors established that HOP-[…]-CD has no effect on polyQ aggregation over a 5-log concentration range (data not shown) and therefore the HOP-[…]-CD concentration required to complex 250 μM was used as the vehicle. The medium was changed twice weekly and slices were fixed at weekly intervals from 2 weeks in culture. The huntingtin aggregate load was assessed by quantitative indirect immunofluorescence and results were analyzed using the general linear model ANOVA with false discovery rate correction (Hochberg, Y. & Benjamini, Y. (1990) Stat Med 9: 811-8).
We have developed this technique to bridge the gap between wholly in vitro aggregation assays and preclinical trials and allow us to quantify aggregate formation in a system in which aggregates form at the same rate and in the same sequence as they do in vivo.

[5] = Experimental: Drug Formulation. […] This solution was administered to mice in place of drinking water and replaced weekly.
Animals. Affected mice were hemizygous R6/2 females (Mangiarini, L., et al. (1996) Cell 87: 493-506) (available from the Induced Mutant Resource, Jackson Laboratory, Bar Harbor Me., code B6CBA-TgN (HDexon1)62), bred and reared in our colony by backcrossing R6/2 males to C57BL/6×CBA F1 females. Transgenic animals were identified prior to weaning by PCR of tail-tip DNA and CAG repeat size was determined (Mangiarini, L., et al. (1997) Nat Genet 15: 197-200). Control mice were wild-type female littermates. Mice were weaned into their treatment groups at 4 weeks of age. […] From age 12 weeks, all animals were additionally given mash consisting of powdered chow mixed with the drug solution as given in the drinking bottle. The mice were subject to a 12 hour light (08:00-20:00), 12 hour dark (20:00-08:00) cycle. Living conditions and baseline characteristics of study groupings were standardized as previously described (Hockly et al. submitted).
Assuming that a 20 g mouse drinks 3 ml/day, this corresponds to a dose of 1.33 g/l.
Drug administration commenced at 30 days of age after an initial testing week, which was used to assort the mice into well-matched treatment groups (FIG. 28a).

Question: For C=C[C@@H](O)[C@@H]1O[C@H]1/C=C/[C@@H]1O[C@H]1[C@@H](C)O [depudecin, Depudecin], which “Effective Inhibitory Concentration Range” value (deacetylase) is on record?
Answer: μM

Question: Which “Effective Inhibitory Concentration Range” value (deacetylase) does the source give for CCCC(=O)O [butyrate, Butyric acid] here?
Answer: mM

Question: And the “levels of histone H4 acetylation” value [1]?
Answer: can be reversed by butyrate treatment

Question: And the “levels of histone H4 acetylation” value ([1]; listed as sodium butyrate)?
Answer: increased

Question: What about the “progressive photoreceptor neuron degeneration” value (flies expressing Q48; 100 mM butyrate) of the same molecule?
Answer: still prevented; also recorded: arrested

Question: And the “distribution of rhabdomeres by day 6” value (flies expressing Q48)?
Answer: same distribution of rhadomeres by day 6 as 1-day-old flies

Question: What about the “neurodegenerative effect of Q48 (photographs of ommatidia)” value (flies expressing Q48) of the same molecule?
Answer: disrupts the neurodegenerative effect of Q48

Question: What about the “number of rhabdomeres per ommatidium at 6 days after eclosion” value ([2]; flies fed 100 mM butyrate) of the same molecule?
Answer: markedly improved

Question: What about the “level of degeneration (loss of rhabdomeres)” value ([2]; larvae reared on inhibitor-containing food) of the same molecule?
Answer: reduces the level of degeneration observed

Question: With Oxamflatin as the molecule, how does the “Effective Inhibitory Concentration Range” value (deacetylase) read?
Answer: μM

Question: With O=C(CCCCCCC(=O)NO)NO [suberic bis-hydroxamic acid] as the molecule, how does the “Effective Inhibitory Concentration Range” value (deacetylase) read?
Answer: nM-μM

Question: Which “Effective Inhibitory Concentration Range” value (deacetylase) does the source give for O=C(CCCCCN1C(=O)c2cccc3cccc(c23)C1=O)NO [scriptaid, Scriptaid] here?
Answer: nM-μM

Question: Which “Effective Inhibitory Concentration Range” value (deacetylase) does the source give for Nc1ccccc1NC(=O)c1ccc(CNC(=O)OCc2cccnc2)cc1 [benzamide (MS-27-275), MS-275] here?
Answer: μM

Question: For O=C(/C=C/c1cccc(C(=O)NO)c1)NO [m-carboxy cinnamic acid bis-hydroxamic acid], which “Effective Inhibitory Concentration Range” value (deacetylase) is on record?
Answer: nM-μM

Question: For O=C(O)CCCc1ccccc1 [phenylbutyrate, Phenylbutyrate], which “Effective Inhibitory Concentration Range” value (deacetylase) is on record?
Answer: mM

Question: With O=C(CCCCCCC(=O)Nc1cccnc1)NO [pyroxamide] as the molecule, how does the “Effective Inhibitory Concentration Range” value (deacetylase) read?
Answer: nM-μM

Question: Which “Effective Inhibitory Concentration Range” value (deacetylase) does the source give for C/C=C1\NC(=O)[C@H]2CSSCC/C=C/[C@H](CC(=O)N[C@H](C(C)C)C(=O)N2)OC(=O)[C@H](C(C)C)NC1=O [depsipeptide, Depsipeptide] here?
Answer: nM-μM

Question: For O=C(CCCCCCC(=O)Nc1ccccc1)NO [SAHA, Suberoylanilide hydroxamic acid], which “Rotarod performance / motor impairment versus placebo” value (R6/2 mice; R6/2, 0.67 g/l SAHA in HOP-[…]-CD in drinking water) is on record?
Answer: strong and consistent improvement; also recorded: dramatically improves Rotarod performance; also recorded: highly significant improvement; also recorded: dramatically improve the motor impairment

Question: And the “Rotarod latency to fall” value (R6/2 mice; R6/2, 0.67 g/l SAHA, 8 weeks of age)?
Answer: 207 s

Question: What about the “Rotarod latency to fall” value (R6/2 mice; R6/2, 0.67 g/l SAHA, 10 weeks of age) of the same molecule?
Answer: 187 s

Question: And the “Rotarod latency to fall” value (R6/2 mice; R6/2, 0.67 g/l SAHA, 12 weeks of age)?
Answer: 144 s

Question: And the “delay in the decline in Rotarod performance” value (R6/2 mice; R6/2, 0.67 g/l SAHA, 12 weeks versus placebo at 8 weeks)?
Answer: delay by as much as one month

Question: What about the “Rotarod performance versus placebo” value (R6/2 mice; wild-type mice, 0.67 g/l SAHA) of the same molecule?
Answer: no significant difference

Question: What about the effective concentration (deacetylase) of the same molecule?
Answer: ~2.5 µM

Question: And the “progressive photoreceptor neuron degeneration” value (flies expressing Q48; 2 μM SAHA)?
Answer: still prevented; also recorded: arrested

Question: And the “distribution of rhabdomeres by day 6” value (flies expressing Q48)?
Answer: same distribution of rhadomeres by day 6 as 1-day-old flies

Question: What about the “neurodegenerative effect of Q48 (photographs of ommatidia)” value (flies expressing Q48) of the same molecule?
Answer: disrupts the neurodegenerative effect of Q48

Question: And the “failure of R6/2 mice to gain weight” value ([3]; R6/2, 0.67 g/l SAHA)?
Answer: did not prevent; also recorded: did not ameliorate

Question: What about the “weight deficit compared to appropriate placebo group” value ([3]; both wild-type and R6/2, 13 weeks, 0.67 g/l SAHA) of the same molecule?
Answer: ~18%

Question: And the “weight gain compared to littermates on placebo” value ([3]; wild-type and R6/2, 0.67 g/l SAHA)?
Answer: failed to gain weight to the same extent; also recorded: failing to gain weight at the same rate as placebo-treated mice

Question: What about the “aggregate load versus vehicle control” value ([4]; 0.025 μM, 0.25 μM or 2.5 μM SAHA in HOP-[…]-CD, 3 and 4 weeks) of the same molecule?
Answer: no difference; also recorded: no effect

Question: What about the “toxicity to slice cultures” value ([4]; 25 μM and 250 μM) of the same molecule?
Answer: toxic

Question: And the “deaths before termination of the experiments at 13 weeks” value ([5]; 0.67 g/l, R6/2 and wild-type)?
Answer: no R6/2 mice or wild-type mice died

Question: What about the OUTCOME ([5]; 1.33 g/1, WT and R6/2, oral, 3 weeks) of the same molecule?
Answer: no adverse symptoms

Question: And the “mice that died at around 6 weeks of age” value ([5]; 1.33 g/l from 30 days of age, R6/2)?
Answer: 2/13

Question: What about the “weight less than mice on the corresponding placebo” value ([5]; 1.33 g/l from 30 days of age, after 2 weeks, wild-type and R6/2, data not shown) of the same molecule?
Answer: more than 20%

Question: And the “mice that died at around 6 weeks of age” value ([5]; 1.33 g/l from 30 days of age, wild-type)?
Answer: 2/12

Question: What about the OUTCOME ([5]; DE to 2 g/1, R6/2, oral, 1 week) of the same molecule?
Answer: weight loss and one mouse (out of 4) died within one week

Question: And the OUTCOME ([5]; DE to 2.67 g/1+, WT, oral, 3 weeks)?
Answer: dramatic weight loss

Question: What about the toxicity ([5]; administration initiated at 30 days, doses […]1.33 g/l, wild-type and R6/2) of the same molecule?
Answer: toxic

Question: Which “Effective Inhibitory Concentration Range” value (deacetylase) does the source give for CN(C)c1ccc(C(=O)NCCCCCCCC(=O)NO)cc1 [DBCH, dimethylaminobenzamidylcaprylic hydroxamate] here?
Answer: nM-μM

— US20050227915A1, “Methods and reagents for treating neurodegenerative diseases and motor deficit disorders” (priority 2001, published 2005)
